This note sets out measurements from ChEMBL document CHEMBL5365506, “Novel Haloacethydrazides as AEP Inhibitors for Treating Alzheimer's Disease” (ACS Med Chem Lett, 2023).

The structures appear in SMILES notation. pIC50: −log10 of the molar value.

The target in this assay is T1, Legumain (Homo sapiens, UniProt Q99538).
T1 sequence (Q99538 whole entry): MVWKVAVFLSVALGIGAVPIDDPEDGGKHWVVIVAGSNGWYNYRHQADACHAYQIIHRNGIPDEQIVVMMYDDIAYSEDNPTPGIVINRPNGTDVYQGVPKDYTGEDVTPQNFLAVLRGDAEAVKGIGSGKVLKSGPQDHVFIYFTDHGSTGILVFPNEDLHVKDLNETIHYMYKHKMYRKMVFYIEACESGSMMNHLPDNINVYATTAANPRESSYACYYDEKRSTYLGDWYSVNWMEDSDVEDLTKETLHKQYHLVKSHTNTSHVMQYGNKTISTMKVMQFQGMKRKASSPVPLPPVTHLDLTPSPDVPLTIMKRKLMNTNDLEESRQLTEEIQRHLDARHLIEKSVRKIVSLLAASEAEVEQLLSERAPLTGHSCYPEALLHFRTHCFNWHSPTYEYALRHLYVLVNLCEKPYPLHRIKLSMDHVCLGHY
Description: Inhibition of human 8His-tagged AEP (V18 to Y433 residues) using Z-Ala-Ala-Asn-Rhl 10-(D-Pro) as substrate incubated for 30 mins followed by substrate addition by fluorescence based microplate reader analysis.
In turn, `C#CCOc1ccc(C2(C(=O)N3CCC[C@H]3C(=O)NN(CC(N)=O)C(=O)CF)CC2)cc1` had a pIC50 of 9.00.

As for `C#Cc1ccc(C2(C(=O)N3CCC[C@H]3C(=O)NN(CC(N)=O)C(=O)CF)CC2)cc1`, the pIC50 was 9.00.

The compound `NC(=O)CN(NC(=O)[C@@H]1CCCN1C(=O)C1(c2ccc(Cl)cc2)CCC1)C(=O)CF` showed a pIC50 of 9.00.

`COc1ccc(-c2ccc(S(=O)(=O)N3CCC[C@H]3C(=O)NN(CC(N)=O)C(=O)CF)cc2)cc1` gave a pIC50 of 9.00.
